The test concerns the target T1, F508delCFTR (Homo sapiens, UniProt P13569, DEL508-508).
T1 construct: expressed in transfected cells; host or cells: CFBE41o- (CFBE41o-F508delCFTR-HRP), doxycycline-inducible
Put plainly: Cell Surface Expression-Horse Radish Peroxidase (CSE-HRP) assay. The format is cell-based. Conditions: CFBE41o-F508delCFTR-HRP cells; for EC50: cell surface expression, luminescence readout, 18-24 hours at 33° C., highest concentration tested 20 μM, 8-point curve; for Maximum % activity: maximum at any tested concentration, normalized to on-plate positive control (3 μM) and DMSO. The source says:
Cell Surface Expression-Horse Radish Peroxidase (CSE-HRP) Assay:
A cellular assay for measuring the F508delCFTR cell surface expression after correction with test compounds was developed in human lung derived epithelial cell line (CFBE41o-) (Veit G et al, (2012) Mol Biol Cell. 23(21): 4188-4202). This was achieved by expressing the F508delCFTR mutation along with a horseradish peroxidase (HRP) in the fourth exofacial loop and then measuring the HRP activity using luminescence readout from these cells, CFBE41o-F508delCFTR-HRP, that were incubated overnight with the test corrector compounds. Briefly, for this primary assay, the CFBE41o-F508delCFTR-HRP cells were plated in 384-well plates (Greiner Bio-one; Cat 781080) at 4,000 cells/well along with 0.5 μg/mL doxycycline to induce the F508delCFTR-HRP expression and further incubated at 37° C., 5% CO2 for 72 hours. The test compounds were then added at the required concentrations and further incubated for 18-24 hours at 33° C. The highest concentration tested was 20 μM with an 8-point concentration response curve using a 3-fold dilution. Three replicate plates were run to determine one EC50. All plates contained negative controls (dimethyl sulfoxide, DMSO) and positive controls (3 μM of 3-[(2R,4R)-4-({[1-(2,2-difluoro-1,3-benzodioxol-5-yl)cyclopropyl]carbonyl}amino)-7-methoxy-3,4-dihydro-2H-chromen-2-yl]benzoic acid) as well as on-plate concentration response of the positive control. Post incubation, the plates were washed 5× times with Dulbecco's phosphate buffered saline (DPBS), followed by the addition of the HRP substrate, luminol (50 μL), and measuring the HRP activity using luminescence readout on EnVision® Multilabel Plate Reader (Perkin Elmer; product number 2104-0010). The raw counts from the experiment are analyzed using Accelrys® Assay Explorer v3.3.
Z′ greater than 0.5 was used as passing quality control criteria for the plates.
The Z′ is defined as: 1−[3*SDPositive Control+3*SDNegative Control/Absolute(MeanPositive Control−MeanNegative Control)],
wherein “SD” is standard deviation.
The % activity measured at each of the 8 test concentrations of the test compound was normalized to the on-plate positive control using the following formula: % activity=[(test compound response−DMSO response)/(positive control response−DMSO response)]*100
The maximum % activity achieved for the test compound at any tested concentration is presented in Table 1 along with the EC50 calculated using the following general sigmoidal curve with variable Hill slope equation (described as Model 42 in the Accelrys® Assay Explorer v3.3 software): y=(a−d)/(1+(x/c)^b)+d General sigmoidal curve with concentration, response, top, bottom, EC50 and Hill slope.
This model describes a sigmoidal curve with an adjustable baseline, a. The equation can be used to fit curves where response is either increasing or decreasing with respect to the independent variable, “x”.
“x” is a concentration of drug under test.
“a” is the maximum response, and “d” is the minimum response
“c” is the inflection point (EC50) for the curve. That is, “y” is halfway between the lower and upper asymptotes when x=c.
“b” is the slope-factor or Hill coefficient. The sign of b is positive when the response increases with increasing dose and is negative when the response decreases with increasing dose (inhibition).

T1 sequence (P13569 with tags, fused parts or gaps DEL508-508): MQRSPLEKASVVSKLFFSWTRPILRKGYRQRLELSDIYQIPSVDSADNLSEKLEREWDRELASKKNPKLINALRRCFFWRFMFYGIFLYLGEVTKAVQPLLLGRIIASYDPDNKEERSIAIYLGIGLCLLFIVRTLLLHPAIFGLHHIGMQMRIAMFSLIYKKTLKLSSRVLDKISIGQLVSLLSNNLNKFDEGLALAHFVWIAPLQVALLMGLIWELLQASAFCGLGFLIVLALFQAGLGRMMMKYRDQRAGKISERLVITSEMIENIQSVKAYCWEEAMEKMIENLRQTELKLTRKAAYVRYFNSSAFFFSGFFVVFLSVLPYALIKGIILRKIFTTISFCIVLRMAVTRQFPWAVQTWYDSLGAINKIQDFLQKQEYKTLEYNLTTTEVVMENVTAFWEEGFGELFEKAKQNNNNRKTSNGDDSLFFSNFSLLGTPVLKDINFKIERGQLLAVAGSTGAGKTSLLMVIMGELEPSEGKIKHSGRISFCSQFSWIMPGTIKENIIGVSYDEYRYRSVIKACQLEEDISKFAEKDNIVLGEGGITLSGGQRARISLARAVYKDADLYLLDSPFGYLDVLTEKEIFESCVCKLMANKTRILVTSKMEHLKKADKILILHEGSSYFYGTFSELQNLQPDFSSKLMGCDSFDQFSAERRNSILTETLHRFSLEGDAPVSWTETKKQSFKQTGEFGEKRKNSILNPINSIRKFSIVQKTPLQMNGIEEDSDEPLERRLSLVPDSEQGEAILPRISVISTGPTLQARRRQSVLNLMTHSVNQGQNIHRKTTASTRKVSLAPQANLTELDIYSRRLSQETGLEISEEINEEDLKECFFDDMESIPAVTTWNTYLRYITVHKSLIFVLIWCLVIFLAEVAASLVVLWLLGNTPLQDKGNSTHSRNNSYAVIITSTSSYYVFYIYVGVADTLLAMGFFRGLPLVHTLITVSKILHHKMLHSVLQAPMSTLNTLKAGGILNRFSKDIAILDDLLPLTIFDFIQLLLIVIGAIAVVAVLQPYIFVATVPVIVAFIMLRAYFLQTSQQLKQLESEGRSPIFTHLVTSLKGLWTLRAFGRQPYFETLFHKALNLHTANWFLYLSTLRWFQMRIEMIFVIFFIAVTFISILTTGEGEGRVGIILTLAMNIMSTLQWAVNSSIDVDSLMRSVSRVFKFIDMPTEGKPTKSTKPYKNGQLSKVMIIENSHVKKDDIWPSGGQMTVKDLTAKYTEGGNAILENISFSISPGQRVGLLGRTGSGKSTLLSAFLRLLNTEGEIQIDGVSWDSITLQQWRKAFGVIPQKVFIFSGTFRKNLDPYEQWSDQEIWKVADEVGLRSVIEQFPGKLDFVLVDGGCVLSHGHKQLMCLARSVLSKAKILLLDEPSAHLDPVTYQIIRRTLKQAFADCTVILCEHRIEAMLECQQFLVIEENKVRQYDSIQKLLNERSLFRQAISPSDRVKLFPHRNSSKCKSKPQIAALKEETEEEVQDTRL

`COC(=O)c1ccc([C@H]2C[C@@H](NC(=O)C3(c4ccc5c(c4)OC(F)(F)O5)CC3)CC(C)(C)O2)cc1` (racemic) [Example 34, methyl rac-4-[(2R,4R)-4-({[1-(2,2-difluoro-1,3-benzodioxol-5-yl)cyclopropyl]carbonyl}amino)-6,6-dimethyltetrahydro-2H-pyran-2-yl]benzoate]: it took 1610 nM to reach a half-maximal effect (EC50) and the Maximum % activity was 105%.

As to `CC1(C)C[C@H](NC(=O)C2(c3ccc4c(c3)OC(F)(F)O4)CC2)C[C@H](c2ccc(C(=O)O)cc2)O1` (racemic) [Example 35, rac-4-[(2R,4R)-4-({[1-(2,2-difluoro-1,3-benzodioxol-5-yl)cyclopropyl]carbonyl}amino)-6,6-dimethyltetrahydro-2H-pyran-2-yl]benzoic acid], the EC50 (as a rule, the midpoint of the concentration-response curve) was 2870 nM and the Maximum % activity was determined as 89%.

As for `COC(=O)c1ccc([C@H]2C[C@@H](NC(=O)C3(c4ccc5c(c4)OC(F)(F)O5)CC3)CCO2)c(C)c1` (racemic) [Example 36, methyl rac-4-[(2R,4S)-4-({[1-(2,2-difluoro-1,3-benzodioxol-5-yl)cyclopropyl]carbonyl}amino)tetrahydro-2H-pyran-2-yl]-3-methylbenzoate], a half-maximal effect (EC50) was put at 570 nM and the Maximum % activity came out at 100%.

For the compound `COC(=O)c1ccc([C@H]2CC(NC(=O)C3(c4ccc5c(c4)OC(F)(F)O5)CC3)C[C@@H](C3CC3)O2)cc1` (mixture of isomers) [Example 38, methyl rac-4-[(2R,6S)-6-cyclopropyl-4-({[1-(2,2-difluoro-1,3-benzodioxol-5-yl)cyclopropyl]carbonyl}amino)tetrahydro-2H-pyran-2-yl]benzoate], the EC50 worked out at 2480 nM and the Maximum % activity is 84%.

Regarding `COC(=O)c1ccc([C@H]2C[C@@H](NC(=O)C3(c4ccc5c(c4)OC(F)(F)O5)CC3)C[C@@H](C)O2)cc1` (racemic) [Example 39, methyl rac-4-[(2R,4S,6R)-4-({[1-(2,2-difluoro-1,3-benzodioxol-5-yl)cyclopropyl]carbonyl}amino)-6-methyltetrahydro-2H-pyran-2-yl]benzoate], the response was half-maximal at 1640 nM (EC50) and the Maximum % activity amounted to 90%.

For the compound `C[C@@H]1C[C@H](NC(=O)C2(c3ccc4c(c3)OC(F)(F)O4)CC2)C[C@H](c2ccc(C(=O)O)cc2)O1` (racemic) [Example 45, rac-4-[(2R,4S,6R)-4-({[1-(2,2-difluoro-1,3-benzodioxol-5-yl)cyclopropyl]carbonyl}amino)-6-methyltetrahydro-2H-pyran-2-yl]benzoic acid], the EC50 is 2000 nM and the Maximum % activity was 101%.

`COC(=O)c1ccc([C@H]2C[C@H](NC(=O)C3(c4ccc5c(c4)OC(F)(F)O5)CC3)C[C@@H](C)O2)cc1` (racemic) [Example 46, methyl rac-4-[(2R,4R,6R)-4-({[1-(2,2-difluoro-1,3-benzodioxol-5-yl)cyclopropyl]carbonyl}amino)-6-methyltetrahydro-2H-pyran-2-yl]benzoate]: the EC50 was 4560 nM and the Maximum % activity turned out to be 67%.

Regarding `COC(=O)c1ccc([C@H]2C[C@H](NC(=O)C3(c4ccc5c(c4)OC(F)(F)O5)CC3)C[C@@H](c3ccccc3)O2)cc1` (racemic) [Example 47, methyl rac-4-[(2R,4R,6S)-4-({[1-(2,2-difluoro-1,3-benzodioxol-5-yl)cyclopropyl]carbonyl}amino)-6-phenyltetrahydro-2H-pyran-2-yl]benzoate], the EC50 came out at 6470 nM and the Maximum % activity was 73%.

On to `COC(=O)c1ccc([C@H]2C[C@@H](NC(=O)C3(c4ccc5c(c4)OC(F)(F)O5)CC3)C[C@@H](c3ccccc3)O2)cc1` (racemic) [Example 48, methyl rac-4-[(2R,4S,6S)-4-({[1-(2,2-difluoro-1,3-benzodioxol-5-yl)cyclopropyl]carbonyl}amino)-6-phenyltetrahydro-2H-pyran-2-yl]benzoate], for which the EC50 came to 830 nM and the Maximum % activity worked out at 100%.

With `O=C(O)c1ccc([C@H]2C[C@H](NC(=O)C3(c4ccc5c(c4)OC(F)(F)O5)CC3)C[C@@H](c3ccccc3)O2)cc1` (racemic) [Example 49, rac-4-[(2R,4R,6S)-4-({[1-(2,2-difluoro-1,3-benzodioxol-5-yl)cyclopropyl]carbonyl}amino)-6-phenyltetrahydro-2H-pyran-2-yl]benzoic acid], a half-maximal effect (EC50) was put at 3080 nM and the Maximum % activity is on record as 77%.

In the case of `O=C(O)c1ccc([C@H]2C[C@@H](NC(=O)C3(c4ccc5c(c4)OC(F)(F)O5)CC3)C[C@@H](c3ccccc3)O2)cc1` (racemic) [Example 50, rac-4-[(2R,4S,6S)-4-({[1-(2,2-difluoro-1,3-benzodioxol-5-yl)cyclopropyl]carbonyl}amino)-6-phenyltetrahydro-2H-pyran-2-yl]benzoic acid], it took 520 nM to reach a half-maximal effect (EC50) and the Maximum % activity stood at 92%.

With `COC(=O)c1ccc([C@H]2C[C@@H](NC(=O)C3(c4ccc5c(c4)OC(F)(F)O5)CC3)C[C@@H](c3ccc(OC)cc3)O2)cc1` (racemic) [Example 55, methyl rac-4-[(2R,4R,6S)-4-({[1-(2,2-difluoro-1,3-benzodioxol-5-yl)cyclopropyl]carbonyl}amino)-6-(4-methoxyphenyl)tetrahydro-2H-pyran-2-yl]benzoate], the EC50 amounted to 860 nM and the Maximum % activity was determined as 104%.

Regarding `COc1ccc([C@@H]2C[C@@H](NC(=O)C3(c4ccc5c(c4)OC(F)(F)O5)CC3)C[C@H](c3ccc(C(=O)O)cc3)O2)cc1` (racemic) [Example 56, rac-4-[(2R,4S,6S)-4-({[1-(2,2-difluoro-1,3-benzodioxol-5-yl)cyclopropyl]carbonyl}amino)-6-(4-methoxyphenyl)tetrahydro-2H-pyran-2-yl]benzoic acid], the midpoint of the response, the EC50, lay at 1900 nM and the Maximum % activity was 89%.

`COc1ccc([C@@H]2C[C@H](NC(=O)C3(c4ccc5c(c4)OC(F)(F)O5)CC3)C[C@H](c3ccc(C(=O)O)cc3)O2)cc1` (racemic) [Example 57, rac-4-[(2R,4R,6S)-4-({[1-(2,2-difluoro-1,3-benzodioxol-5-yl)cyclopropyl]carbonyl}amino)-6-(4-methoxyphenyl)tetrahydro-2H-pyran-2-yl]benzoic acid]: the EC50 amounted to 580 nM and the Maximum % activity came out at 90%.

For the compound `O=C(O)c1ccc([C@H]2C[C@H](NC(=O)C3(c4ccc5c(c4)OC(F)(F)O5)CC3)C[C@@H](c3ccccc3)O2)c(F)c1` (racemic) [Example 61, rac-4-[(2R,4R,6S)-4-({[1-(2,2-difluoro-1,3-benzodioxol-5-yl)cyclopropyl]carbonyl}amino)-6-phenyltetrahydro-2H-pyran-2-yl]-3-fluorobenzoic acid], the EC50 worked out at 2540 nM and the Maximum % activity worked out at 82%.

As to `COC(=O)c1ccc([C@H]2C[C@@H](NC(=O)C3(c4ccc5c(c4)OC(F)(F)O5)CC3)C[C@@H](c3ccccc3)O2)c(C)c1` (racemic) [Example 62, methyl rac-4-[(2R,4S,6S)-4-({[1-(2,2-difluoro-1,3-benzodioxol-5-yl)cyclopropyl]carbonyl}amino)-6-phenyltetrahydro-2H-pyran-2-yl]-3-methylbenzoate], the EC50 was 880 nM and the Maximum % activity worked out at 111%.

Take `COC(=O)c1ccc([C@H]2C[C@@H](NC(=O)C3(c4ccc5c(c4)OC(F)(F)O5)CC3)C[C@@H](c3ccccc3)O2)c(F)c1` (racemic) [Example 63, methyl rac-4-[(2R,4S,6S)-4-({[1-(2,2-difluoro-1,3-benzodioxol-5-yl)cyclopropyl]carbonyl}amino)-6-phenyltetrahydro-2H-pyran-2-yl]-3-fluorobenzoate]: the 50% effective concentration (EC50) came out at 860 nM and the Maximum % activity came out at 105%.

For the origin of these results see US9567322B2, “Substituted tetrahydropyrans and method of use” (AbbVie S.á.r.l., priority 2014, dated 2017).
